Measured values: US20230150924A1, “NOVEL COMPOUND HAVING CANCER METASTASIS INHIBITORY ACTIVITY, PREPARATION METHOD THEREFOR, AND PHARMACEUTICAL COMPOSITION FOR INHIBITING CANCER METASTASIS AND INVASION OR TREATING COLORECTAL CANCER, COMPRISING COMPOUND” (CELLGENTEK CO., LTD., priority 2019, published 2023)
Like-named read-outs stand apart in the source and are kept apart here.

Legend:
[1] = test system: invasion of colorectal cancer cells; test: In vivo relative invation (invasion; EV and KITENIN controls, no method described); settings: relative to EV (=1); KIT = KITENIN
KAI1 promoter = KAI1 promoter luciferase reporter assay in transfected Caco2 cells; type: cell-based, human; settings: for fold induction at 1 µM: Homo sapiens, Caco-2, 16 h, read-out: Relative KAI promoter activity
[2] = 1 μM compound, 16 hours, transfected Caco2 cells, luciferase activity relative to DMSO control (=1)

Row | Structure (SMILES) | In vivo relative invation [1] | fold induction at 1 µM (KAI1 promoter; [2]) | fold induction at 1 µM (KAI1 promoter) | Relative KAI promoter activity (KAI1 promoter; [2])
1 | COCC(=O)NCC(=O)c1ccc(N(C)C)cc1 [Example 106, N-(2-(4-(dimethylamino)phenyl)-2-oxoethyl)-2-methoxyacetamide] | 1.171 | 2.44 |  | 
2 | O=C(CNC(=O)c1ccccc1OC1CCN(C(=O)c2ccccc2F)CC1)c1ccccc1 [Example 153, 2-((1-(2-fluorobenzoyl)piperidin-4-yl)oxy)-N-(2-oxo-2-phenylethyl)benzamide] | 1.095 | 1.05 |  | 
3 | O=C(CNC(=O)c1cccs1)c1ccc(Cl)cc1 [Example 58, N-(2-(4-chlorophenyl)-2-oxoethyl)thiophene-2-carboxamide] | 1.244 | 0.91 |  | 
4 | CCCCN(CCO)Cc1cccc(C(=O)NCC(=O)c2cccc(OC)c2)c1 [Example 288, 3-((butyl (2-hydroxyethyl)amino)methyl)-N-(2-(3-methoxyphenyl)-2-oxoethyl)benzamide] | 1.222 | 1.73 |  | 
5 | CN(C)c1ccc(C(=O)CNC(=O)c2ccc(F)cc2Cl)cc1 [Example 115, 2-chloro-N-(2-(4-(dimethylamino)phenyl)-2-oxoethyl)-4-fluorobenzamide] | 1.209 | 2.04 |  | 
6 | O=C(CNC(=O)c1ccccc1F)c1ccccc1 [Example 3, 2-fluoro-N-(2-oxo-2-phenylethyl)benzamide] | 1 |  | 2.12 | 
7 | O=C(CNC(=O)c1ccccc1OC1CCN(C(=O)CCc2ccccc2)CC1)c1ccccc1 [Example 159, N-(2-oxo-2-phenylethyl)-2-((1-(3-phenylpropanoyl)piperidin-4-yl)oxy)benzamide] | 1.059 | 0.99 |  | 
8 | COc1ccc(C(=O)NCC(=O)c2ccc(N(C)C)cc2)cc1 [Example 104, N-(2-(4-(dimethylamino)phenyl)-2-oxoethyl)-4-methoxybenzamide] | 1.115 |  |  | 1.78
9 | O=C(CNS(=O)(=O)c1ccc(Cl)cc1)c1ccc(N2CCOCC2)cc1 [Example 147, 4-chloro-N-(2-(4-morpholinophenyl)-2-oxoethyl)benzenesulfonamide] | 0.9524 | 1.1 |  | 
10 | CCN(Cc1ccc(C(=O)NCC(=O)c2ccccc2)cc1)c1ccccc1 [Example 263, 4-((ethyl(phenyl)amino)methyl)-N-(2-oxo-2-phenylethyl)benzamide] | 1.301 | 2.23 |  | 
11 | COc1cccc(C(=O)CNC(=O)c2cccc(CN3CCN(c4ccccn4)CC3)c2)c1 [Example 284, N-(2-(3-methoxyphenyl)-2-oxoethyl)-3-((4-(pyridin-2-yl)piperazin-1-yl)methyl)benzamide] | 1.276 | 1.44 |  | 
12 | CN(CCO)Cc1ccc(C(=O)NCC(=O)c2ccccc2)cc1 [Example 267, 4-(((2-hydroxyethyl) (methyl)amino)methyl)-N-(2-oxo-2-phenylethyl)benzamide] | 0.9046 | 3.56 |  | 
13 | O=C(CNC(=O)c1cccc(CN2CCC(N3CCCCC3)CC2)c1)c1ccccc1 [Example 237, 3-([1,4′-bipiperidin]-1′-ylmethyl)-N-(2-oxo-2-phenylethyl)benzamide] | 1.114 | 1.56 |  | 
14 | O=C(COc1ccccc1C(=O)NCC(=O)c1ccccc1)NCc1ccccc1 [Example 204, 2-(2-(benzylamino)-2-oxoethoxy)-N-(2-oxo-2-phenylethyl)benzamide] | 1.095 | 1.3 |  | 
15 | O=C(CNC(=O)c1cccc(CN2CCN(c3ccccn3)CC2)c1)c1ccccc1 [Example 240, N-(2-oxo-2-phenylethyl)-3-((4-(pyridin-2-yl)piperazin-1-yl)methyl)benzamide] | 1.1 | 1.3 |  | 
16 | O=C(CNC(=O)c1ccccc1OC1CCN(C(=O)c2cccc(OC(F)(F)F)c2)CC1)c1ccccc1 [Example 200, N-(2-oxo-2-phenylethyl)-2-((1-(3-(trifluoromethoxy)benzoyl)piperidin-4-yl)oxy)benzamide] | 1.074 | 1.01 |  | 
17 | O=C(CNC(=O)c1cc(C(F)(F)F)cc(C(F)(F)F)c1)c1ccc(Cl)cc1 [Example 72, N-(2-(4-chlorophenyl)-2-oxoethyl)-3,5-bis(trifluoromethyl)benzamide] | 1.044 | 0.8 |  | 
18 | COCC(=O)NCC(=O)c1ccccc1 [Example 23, 2-methoxy-N-(2-oxo-2-phenylethyl) acetamide] | 1.104 | 1 |  | 
19 | C/C=C/C(=O)NCC(=O)c1cccc(OC)c1 [Example 123, (E)-N-(2-(3-methoxyphenyl)-2-oxoethyl)but-2-enamide] | 1.312 | 1.14 |  | 
20 | CCC(=O)NCC(=O)c1cccnc1 [Example 136, N-(2-oxo-2-(pyridin-3-yl)ethyl) propionamide] | 1.297 | 1.17 |  | 
21 | O=C(CNC(=O)c1ccccc1OC1CCN(S(=O)(=O)c2ccccc2)CC1)c1ccccc1 [Example 187, N-(2-oxo-2-phenylethyl)-2-((1-(phenylsulfonyl)piperidin-4-yl)oxy)benzamide] | 1.235 | 1.03 |  | 
22 | CN(C)c1ccc(C(=O)CNS(=O)(=O)c2ccc(F)cc2)cc1 [Example 107, N-(2-(4-(dimethylamino)phenyl)-2-oxoethyl)-4-fluorobenzenesulfonamide] | 0.9868 | 2.07 |  | 
23 | CC(C)(C)OC(=O)N1CCN(Cc2cccc(C(=O)NCC(=O)c3ccccc3)c2)CC1 [Example 245, tert-butyl 4-(3-((2-oxo-2-phenylethyl)carbamoyl)benzyl) piperazine-1-carboxylate] | 1.126 | 1.35 |  | 
24 | CN(C)c1ccc(C(=O)CNC(=O)c2ccc(C(F)(F)F)cc2)cc1 [Example 114, N-(2-(4-(dimethylamino)phenyl)-2-oxoethyl)-4-(trifluoromethyl)benzamide] | 1.197 | 1.38 |  | 
25 | C/C=C/C(=O)NCC(=O)c1ccc(Cl)cc1 [Example 48, (E)-N-(2-(4-chlorophenyl)-2-oxoethyl)but-2-enamide] | 1.19 | 0.85 |  | 
26 | CN(C)c1ccc(C(=O)CNC(=O)c2cccs2)cc1 [Example 101, N-(2-(4-(dimethylamino)phenyl)-2-oxoethyl)thiophene-2-carboxamide] | 0.8815 | 3.04 |  | 
